Measurements published in patent US8759013B2, “Dual-target biosensor cell assays” (Corning Incorporated, priority 2008, dated 2014).
Entries after “also recorded” stand apart in the source; their conditions may differ.

Columns and labels:
[1] = biological target: T1, histamine receptor subtype 1 (H1R) (Homo sapiens, UniProt P35367)
Description: (§1) Corning® Epic® wavelength interrogation system was used.
To test this possibility, a desensitization assay was used.

[2] = tested on: endogenous receptors in A431 cells; assay: LOPAC library agonist screening with biosensor cellular assay (DMR); type: cell-based, human; details: A431 cells; compound at 1 microM; real time kinetic
Protocol: as §1
Furthermore, a ligand-induced DMR is a real time kinetic response containing many useful parameters (e.g., phases, amplitudes and kinetics) for analyzing ligand pharmacology. The LOPAC library was used to screen agonists for endogenous receptors in A431 cells using real time kinetic measurements.
First, the response in terms of wavelength shift between before and 2 min after stimulation was calculated.
Second, the responses in terms of wavelength shift between before and 50 min after stimulation were calculated.
Third, the responses in terms of wavelength shift between 2 min and 50 min after stimulation were calculated. The difference in resonant wavelength between the two time points was plotted as a function of compounds (FIG. 8).

[3] = biological target: T1, histamine receptor subtype 1 (H1R); details: quiescent A431 cells
[4] = biological target: T2, β2-adrenergic receptor (β2AR) (Homo sapiens, UniProt P07550); details: co-stimulation with 2 nM epinephrine and 1 μM histamine; high doses
T2 sequence (P07550 whole entry): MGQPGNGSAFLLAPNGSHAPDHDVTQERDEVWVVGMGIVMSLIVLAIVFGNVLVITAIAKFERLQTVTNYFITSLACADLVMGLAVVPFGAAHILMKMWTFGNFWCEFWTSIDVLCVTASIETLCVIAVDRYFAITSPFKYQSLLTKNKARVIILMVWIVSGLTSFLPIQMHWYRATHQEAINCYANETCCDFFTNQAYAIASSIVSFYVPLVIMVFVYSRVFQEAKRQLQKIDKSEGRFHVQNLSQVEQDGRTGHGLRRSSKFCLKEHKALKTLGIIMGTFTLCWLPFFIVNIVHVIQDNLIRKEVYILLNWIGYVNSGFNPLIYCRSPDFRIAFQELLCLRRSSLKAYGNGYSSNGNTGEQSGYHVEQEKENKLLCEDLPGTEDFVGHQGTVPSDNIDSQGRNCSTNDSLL

[5] = biological target: T1, histamine receptor subtype 1 (H1R); assay: Dual receptor-specific antagonist screening (LOPAC), histamine response; type: cell-based; design: endogenous in cells; host or cells: A431 (human epidermoid carcinoma), quiescent after serum starvation
[6] = biological target: T2, β2-adrenergic receptor (β2AR); assay: Dual receptor-specific antagonist screening (LOPAC), epinephrine response; type: cell-based; design: A431 cells endogenously express both PAR1 and β2AR; endogenous in cells; host or cells: A431 (human epidermoid carcinoma), quiescent after serum starvation; details: compound 1 microM for one hour, then cocktail of epinephrine and histamine
[7] = biological target: T3, protease activated receptor subtype 1, PAR1 (Homo sapiens, UniProt P25116); assay: RWG biosensor DMR assay, SFLLR-amide stimulation of A431 cells; type: cell-based; details: 1 micromolar
T3 construct: A431 cells endogenously express both PAR1 and β2AR; endogenous in cells; host or cells: A431 (human epidermoid carcinoma)
T3 sequence (P25116 22-425): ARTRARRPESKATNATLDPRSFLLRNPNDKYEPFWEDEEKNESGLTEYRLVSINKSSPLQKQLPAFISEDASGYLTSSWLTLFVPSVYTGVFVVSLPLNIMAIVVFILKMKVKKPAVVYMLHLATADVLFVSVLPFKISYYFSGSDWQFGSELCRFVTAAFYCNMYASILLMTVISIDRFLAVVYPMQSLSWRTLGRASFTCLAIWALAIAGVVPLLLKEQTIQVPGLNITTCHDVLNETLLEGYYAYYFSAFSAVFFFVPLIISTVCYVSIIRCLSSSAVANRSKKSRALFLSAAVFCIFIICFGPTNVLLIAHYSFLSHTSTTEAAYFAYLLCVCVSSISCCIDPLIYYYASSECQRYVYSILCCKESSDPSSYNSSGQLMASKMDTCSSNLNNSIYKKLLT
Description: as §1
It is widely believed that GPCR signaling proceeds through a series of highly regulated spatial and temporal events besides the production and regulations of second messengers such as Ca^2+ and cAMP. […] The label-free optical biosensors enable the measurement of an integrated cellular response relating to ligand-induced dynamic mass redistribution in cells within the detection zone of the biosensor, offering a novel readout for receptor biology and ligand pharmacology.
FIG. 2 provide examples of RWG biosensor-based cell assays against two classes of G protein-coupled receptors. […] A431 cells endogenously express both PAR1 and β2AR. […] This is consistent with the known signaling pathways mediated through each receptor individually, i.e., PAR1 activation leads to a Gq pathway, while β2AR activation leads to a Gs pathway. […] In FIGS. 2b, 2c and 2d, the error bar at each time point was also included. One possible explanation is that distinct classes of GPCRs can mediate signaling through distinct routes (e.g., “channeling” or “tunneling”), and the cells can respond synergistically to co-stimulation with two agonists targeting two different receptors.

T1 sequence (P35367 whole entry): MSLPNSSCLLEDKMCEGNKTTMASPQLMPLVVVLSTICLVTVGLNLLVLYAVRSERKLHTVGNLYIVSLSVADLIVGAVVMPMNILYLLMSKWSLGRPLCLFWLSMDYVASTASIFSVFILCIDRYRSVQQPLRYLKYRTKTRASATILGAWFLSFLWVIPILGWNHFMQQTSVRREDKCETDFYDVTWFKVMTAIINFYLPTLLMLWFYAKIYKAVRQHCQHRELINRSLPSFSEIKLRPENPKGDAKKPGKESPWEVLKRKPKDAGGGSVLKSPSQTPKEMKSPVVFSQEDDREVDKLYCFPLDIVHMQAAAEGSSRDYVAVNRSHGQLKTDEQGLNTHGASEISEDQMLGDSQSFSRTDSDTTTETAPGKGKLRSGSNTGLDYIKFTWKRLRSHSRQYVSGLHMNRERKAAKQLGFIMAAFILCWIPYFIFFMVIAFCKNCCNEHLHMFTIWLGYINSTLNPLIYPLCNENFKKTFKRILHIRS

| Compound | Hill slope for inhibition of the histamine response [1] | effect of pretreatment on the histamine response [1] | ligand-induced DMR signal in agonist screening [2] | type of DMR (optical) signal induced [3] | Hill coefficient of the histamine saturation curve ([3]; n=6) | effect of pretreatment on the epinephrine response [4] | effect on the histamine response in the co-stimulation [5] | effect on the epinephrine response in the co-stimulation [6] | type of DMR signal induced [7] |
| --- | --- | --- | --- | --- | --- | --- | --- | --- | --- |
| NCCc1c[nH]cn1 [histamine] | 1.4 | completely inhibited | biphasic Gq-type DMR signal; also recorded: Gq-like DMR signal | dose-dependent and saturable Gq-type optical signal | 1.87 | slightly attenuated | complete desensitization | but not to epinephrine |  |
| SFLLR-amide |  |  |  |  |  |  |  |  | Gq-type DMR signal |
